What was measured:
ALDH1A3 [1] = target: T1, ALDH1A3 (Homo sapiens, UniProt P47895); test: KD evaluation by probe fluorescence (Tecan SPARK); format: binding; conditions: ALDH1A3; probe fixed at 10 μM, isoenzyme 100 μM to 1 μM; read-out: KD
T1 construct: His-tag; made in house; host or cells: bacterial cells
T1 sequence (P47895 1-512): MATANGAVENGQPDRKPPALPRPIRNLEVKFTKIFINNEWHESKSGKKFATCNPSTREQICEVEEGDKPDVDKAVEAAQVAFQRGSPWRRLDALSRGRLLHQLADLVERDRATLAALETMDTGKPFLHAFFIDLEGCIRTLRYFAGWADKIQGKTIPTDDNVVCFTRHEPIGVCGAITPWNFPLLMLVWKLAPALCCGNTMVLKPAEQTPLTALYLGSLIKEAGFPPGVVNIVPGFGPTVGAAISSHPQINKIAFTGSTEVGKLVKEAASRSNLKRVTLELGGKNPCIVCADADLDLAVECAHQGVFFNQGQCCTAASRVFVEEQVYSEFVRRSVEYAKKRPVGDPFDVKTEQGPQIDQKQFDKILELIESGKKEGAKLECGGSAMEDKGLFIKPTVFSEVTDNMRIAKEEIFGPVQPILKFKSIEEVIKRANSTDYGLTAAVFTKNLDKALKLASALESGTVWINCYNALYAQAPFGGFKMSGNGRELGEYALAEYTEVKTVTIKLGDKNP
Procedure: (§1) A common protocol to express and purify all three members of the ALDHIA subfamily has been optimized. Briefly, induced cells, collected by centrifugation, were re-suspended in an appropriate volume of lysis buffer (50 mM Na2HPO4, 300 mM NaCl, 1 mM β-mercaptoethanol, 20 mM imidazole, pH 7.5) added of benzonase nuclease (250 U/μL) and Protease inhibitor cocktail from SIGMA. After ultracentrifugation, the clarified sample was purified by a His-tag affinity chromatography followed by size-exclusion chromatography, using an AKTA FPLC system, at 4° C. To evaluate the purity and homogeneity of the protein, after each purification step, eluted d fractions were analyzed by SDS-PAGE and the protein quantification was always determined by Bradford protein assay.
KD evaluation: on a Tecan—SPARK, probe 14 and 13 were tested at a fixed concentration of 10 μM. All the isoenzymes were tested in wide range of concentrations (from 100 μM to 1 μM). The analysis was settled with a BW of 20, monitoring the Em wavelength in range comprised between 520 and 535 nm for probe 14 and 520 and 580 nm for probe 13. The Ex was fixed at 420 nm for probe 14 and 440 nm for probe 13. The test was performed in quadruplicate with all the three isoenzymes. The recipe of the buffer reaction was the same as described before.

ALDH1A3 [2] = target: T1, ALDH1A3; test: IC50 evaluation, NADH formation at 340 nm (Tecan SUNRISE); format: biochemical; conditions: ALDH1A3; 20 mM acetaldehyde, 500 μM NAD+, 15% DMSO, 2.7 μM isoenzyme; read-out: IC50
Procedure: as §1
IC50 evaluation: on a Tecan—SUNRISE, probe 13 was tested in a serial dilution series from 200 μM to 3, 125 μM, against all the three isoenzymes. The recipe of reaction buffer was: 20 mM Tris HCl pH=8, 150 mM KCl, 1 mM B-mercaptoethanol, 500 μM NAD^+, 15% DMSO fixed, 20 mM acetaldehyde and 2.7 μM each isoenzyme. The analysis was conducted measuring the NADH formation, that has a specific absorbance wavelength (340 nm). The test was performed in triplicate with all the three isoenzymes.

ALDH1A3 [3] = target: T1, ALDH1A3; test: Fluorescence of probes in buffer and in complex with the isoenzymes (Tecan SPARK); format: binding; conditions: in complex with the three isoenzymes, in particular ALDH1A3
Procedure: All five compounds were dissolved in DMSO (100%) to obtain two different initial stocks, one at 10 mM and a second one at 1 mM. […] The assay can be executed at a maximum DMSO percentage of 15%. The maximum probe concentration tested was 500 uM—15% DMSO. All the compounds were tested using a Tecan—SPARK, to analyze their absorbance, excitation and emission wavelength. Based on the literature, the absorbance of the curcumin by itself is comprised between 420 and 425 nm. At first, we measured the absorbance, and from those values, we performed a 3D analysis to highlights the correct Ex and Em wavelengths. To avoid any possible background in the fluorescence signal we performed a screening of every possible buffer used in our assays.

HEK293T (ALDH1A2+) = test: Confocal fluorescence of probes in cell lines; format: cell-based; conditions: 10 μM to 100 nM
Procedure: (§2) All 3 enzymes belonging to the subfamily 1A of aldehyde dehydrogenases were expressed recombinantly in bacterial cells and purified to homogeneity. The pure enzymes were then used to study the interaction with the molecules according to the invention, using various in vitro biochemical assays. In particular, the affinity for the isoenzymes of the selected molecules was measured through the use of a TECAN SPARK and a TECAN SUNRISE. Fluorescence assays were performed in the presence of different protein concentrations and the activity assays were conducted by measuring NAD^+ consumption. According to their specific activity, all molecules were characterized by values of KD, KM, Ki and IC50, showing a net selectivity in specifically binding the ALDH1A3 enzyme. The probes having curcumin and recognizing the ALDH1A3 enzyme were tested in a cellular context, using four different cell lines classified by the presence or absence of the isoform studied: human glioblastoma line (U87MG, ALDH1A3 positive), embryonic kidney cell line (HEK293T, ALDH1A2 positive), human astrocyte line (hAstro, ALDH1A1 positive) and a breast cancer line (4T1, ALDHIA negative). […] The binding ability of the probes to these cell lines was also verified and confirmed by flow cytometry.
(§3) Human U87MG glioblastoma were used as ALDH1A3+ cell lines, HEK293T as ALDH1A2+ cell line, human foetal astrocytes (hASTRO) as ALDH1A1+ cell line and 4T1 mammary carcinoma as triple negative ALDHIA subfamily (checked with Western Blot analysis and RT-PCR). All these cell lines were incubated with Probe 14 and 13 at different concentrations (from 10 μM to 100 nM). At all these concentrations we observed a selectivity of probe 14 and 13 on U87MG cells after 2 h, that appeared to be cytoplasmic, no signal has been verified in HEK293T, hASTRO and 4T1 cell lines. Moreover, we incubated the two probes with cells and analyzed with FACS and we observed a significant positivity in U87MG cells, too.

[4] = tested on: human foetal astrocytes (hASTRO, ALDH1A1+); test: Confocal fluorescence of probes in cell lines; format: cell-based; conditions: 10 μM to 100 nM
Procedure: as §2, §3

[5] = tested on: 4T1 mammary carcinoma (triple negative ALDH1A subfamily); test: Confocal fluorescence of probes in cell lines; format: cell-based; conditions: 4T1, 10 μM to 100 nM
Procedure: as §2, §3

SMILES | Kd (ALDH1A3 [1]) [µM] | IC50 (ALDH1A3 [2]) [µM] | increase of fluorescence in complex with the isoenzymes (ALDH1A3 [3]) | fluorescence signal in cells (HEK293T (ALDH1A2+)) | fluorescence signal in cells [4] | fluorescence signal in cells [5]
COc1cc(/C=C/C(=O)/C=C(O)/C=C/c2ccc(OCc3cn(CCOc4ccc(C=O)cc4)nn3)c(OC)c2)ccc1O [Compound 13] | 38.2 | 1.5 | significant positive increment | no signal | no signal | no signal
CCOC(=O)Cn1cc(COc2ccc(/C=C/C(O)=C/C(=O)/C=C/c3ccc(O)c(OC)c3)cc2OC)nn1 [Compound 14] | 84.3 | 14.5 | significant positive increment | no signal | no signal | no signal

Reference: US20250281649A1, “PROBE DIRECTED TO ENZYME ALDH1A3 AND USE THEREOF IN THE DIAGNOSIS OF GLIOBLASTOMA” (Universita' Degli Studi Del Piemonte Orientale "A. Avogadro", priority 2021, published 2025)
